Data reported in patent US20100069668A1, “5-[(2R)-[2-[2-(2,2,2-TRIFLUOROETHOXY)PHENOXY]ETHYL]AMINO]PROPYL]-2-METHOXYBENZENESULFONAMIDE” (priority 2006, published 2010).
Structures can show the parent of a compound that is named as a salt.

Columns and labels:
α1 receptor [1] = assay: antagonism of norepinephrine-induced contraction of isolated urethra smooth muscle; assay type: cell-based, rat; conditions: for pA2 for antagonism of norepinephrine-induced contraction, urethra: isolated rat urethra; for the intensity ratio of the contraction caused by inhibiting norepinephrine, urethra/aorta / the intensity ratio of the contraction caused by inhibiting norepinephrine, urethra/vas deferens: calculated by pA2 value
Method: (§1) The antagonism and antagonistic selectivity of α1 receptor of different isolated smooth muscle specimens treated with the compound having formula (I).
(§2) Methods: a 24-hour fasting rat was hit on the head to induce coma, and quickly dissected the abdominal cavity, its urethra, aorta and vas deferens were respectively taken out and recorded the contraction curve with instruments, then the different concentrations and volumes of norepinephrine were added to get noradrenalin's accumulation curve, rinsed immediately to return to baseline, then different concentrations of test drugs were added. Noradrenaline was added repeatedly after 5˜8 minute to obtain average contractile response curve of noradrenalin under different concentrations of antagonist, the contraction pD2 of noradrenaline on the urethra, aorta, vas deferens under different concentrations of samples for test was calculated, the pA2 value for antagonism of contraction caused by the samples against norepinephrine was obtain by regressing with the concentration of test samples and pD2.
Results: pA2 value for the contraction of the different organizations inhibition of smooth muscle specimens induced by the hydrochlorate of compound I and tamsulosin hydrochloride against norepinephrine is shown in Table 1. The intensity ratio of contraction inhibitive effect of urethra and aorta, urethra and vas deferens smooth muscle, caused by the sample against noradrenaline is disclosed in table 2, which is calculated by pA2 value.

α1 receptor [2] = assay: antagonism of norepinephrine-induced contraction of isolated vas deferens smooth muscle; assay type: cell-based; conditions: isolated rat vas deferens
Method: as §1, §2
(§3) Results: pA2 value for the contraction of the different organizations inhibition of smooth muscle specimens induced by the hydrochlorate of compound I and tamsulosin hydrochloride against norepinephrine is shown in Table 1. […]

α1 receptor [3] = assay: antagonism of norepinephrine-induced contraction of isolated aorta smooth muscle; assay type: cell-based; conditions: isolated rat aorta
Method: as §1, §2, §3

## COc1ccc(C[C@@H](C)NCCOc2ccccc2OCC(F)(F)F)cc1S(N)(=O)=O [the hydrochlorate of compound I, 5-[(2R)-[2-[2-[2-(2,2,2-trifluoroethoxy)phenoxy]ethyl]amino]propyl]-2-methoxybenzenesulfonamide]
α1 receptor [1]
  pA2 for antagonism of norepinephrine-induced contraction, urethra: 11.00
  the intensity ratio of the contraction caused by inhibiting norepinephrine, urethra/aorta: 607.31
  the intensity ratio of the contraction caused by inhibiting norepinephrine, urethra/vas deferens: 8.120
α1 receptor [2]
  pA2 value for the contraction caused by inhibiting norepinephrine, vas deferens: 10.08
α1 receptor [3]
  pA2 value for the contraction caused by inhibiting norepinephrine, aorta: 8.21

## CCOc1ccccc1OCCN[C@H](C)Cc1ccc(OC)c(S(N)(=O)=O)c1 [Tamsulosin hydrochloride]
α1 receptor [1]
  pA2 for antagonism of norepinephrine-induced contraction, urethra: 9.22
  the intensity ratio of the contraction caused by inhibiting norepinephrine, urethra/aorta: 3.83
  the intensity ratio of the contraction caused by inhibiting norepinephrine, urethra/vas deferens: 0.123
α1 receptor [2]
  pA2 value for the contraction caused by inhibiting norepinephrine, vas deferens: 10.12
α1 receptor [3]
  pA2 value for the contraction caused by inhibiting norepinephrine, aorta: 8.63
